Test results published in patent publication US20030022814A1, “Method for treating or preventing depression” (priority 2002, published 2003).

Experiments:
[1] = system: PDE IV inhibitor-induced emesis in the ferret; assay: Ferret emesis: PDE4 inhibitors and neurokinin-1 receptor antagonists; assay type: in vivo; details: NK-1 antagonist given before oral emetic dose of PDE IV inhibitor
Description: Ferret Emesis: PDE4 Inhibitors and Neurokinin-1 Receptor Antagonists
Intracerebroventricular (i.c.v.) administration was performed following a surgical implantation of an i.c.v. guide cannula. Under isoflurane anaesthesia, a 22 gauge stainless steel guide cannula (total length=20 mm) was lowered 9 mm below the surface of the skull, at the midline, 2 mm anterior to the cross-suture of the posterior edge of the skull. The tip of the guide cannula is then positioned 3-5 mm directly above the area postrema. The guide cannula was fixed to the skull using 2 screws and dental acrylic cement. The animals received antibiotic (Clamoxyl LA, SmithKline Beecham, Surrey, U.K.; 15 mg kg^−1 s.c.) and analgesic injections (Zenecarp, C-Vet Limited, Edmounds, U.K.; 5 mg kg^−1 s.c.) and were housed in individual cages. They were allowed at least 1 week to recover. Intracerebroventricular administration of drugs was performed by inserting an injection unit of 24-25 mm (level of the area postrema) or 27 mm (for brain tissue injection) length into the guide cannula and infusing 2 μl of the drug solution (or vehicle) over 1 minute. […]
Anti-emetic agents ondansetron (3 mg kg^−1 i.p.), and neurokinin-1 receptor antagonists (3 mg kg^−1 i.p. or s.c.) were administered 30 minutes prior to an oral challenge with an emetic dose of selected PDE IV inhibitors. […] The emetic response was monitored as described earlier. […]

emesis in ferrets = assay: Ferret emesis: PDE4 inhibitors and alpha-2 adrenoreceptor agonists/antagonists; details: for emesis following administration of the drug itself: route not stated

SMILES: COc1ccccc1CN[C@H]1CCCN[C@H]1c1ccccc1 [CP-99,994]
- effect on PDE IV inhibitor-induced emesis [1]: abolished

SMILES: CS(=O)(=O)NCCN1C(=O)NC[C@]12CCN1CCc3c(oc4ccccc34)[C@@H]1C2 [MK-467]
- emesis following administration of the drug itself (emesis in ferrets): Emesis was also recorded

SMILES: CN1CC[C@]2(CCN3CCc4c(oc5ccccc45)[C@@H]3C2)N(C)C1=O.Cl [MK-912]
- emesis following administration of the drug itself (emesis in ferrets): Emesis was also recorded

SMILES: Clc1cccc(Cl)c1N=C1NCCN1 [clonidine]
- emesis induced by CT-2450 (emesis in ferrets; 250 μg kg−1 pre-treatment, CT-2450 30 mg kg−1 p.o., all animals treated): abolished
- animals with complete protection against R-rolipram-induced emesis (emesis in ferrets; 250 μg kg−1 pre-treatment, R-rolipram 3 mg kg−1 p.o.): two out of three
- animals with complete protection against RS14203-induced emesis (emesis in ferrets; 250 μg kg−1 pre-treatment, RS14203 1 mg kg−1 p.o.): five out of six
- latency of onset of RS14203-induced emesis (emesis in ferrets; RS14203 1 mg kg−1 p.o. challenge): increased
- number of retches and vomits induced by RS14203 (emesis in ferrets; RS14203 1 mg kg−1 p.o. challenge, clonidine 62.5-250 μg kg−1): dose-dependently decreased

SMILES: COC(=O)[C@@H]1[C@H]2C[C@H]3c4[nH]c5ccccc5c4CCN3C[C@@H]2CC[C@@H]1O [yohimbine]
- emesis (retching and vomiting) induced by the drug itself (emesis in ferrets; intraperitoneal injection): induced retching and vomiting in all ferrets treated
